Data reported in patent US12599628B2, “Mitigation of cryptosporidiosis using hydrogen peroxide-generating compositions” (Purina Animal Nutrition, LLC, priority 2021, dated 2026).

Key:
[1] = system: C. parvum sporozoites; assay: In vitro Cryptosporidium exposure: C. parvum sporozoites mixed with treatment, added to HCT-8 cells, qPCR of COWP gene; assay type: cell-based; settings: all treatment concentrations (0.26, 2.08, 3.125, 6.25, 12.5, 18.75, 25, 450 mg/L); p<0.05; FIG. 1
Method: (§1) Sodium percarbonate (0.26, 2.08, 3.125, 6.25, 12.5, 18.75, 25, or 450 mg/L) was tested for its ability to neutralize C. parvum sporozoites in host epithelial cells. HCT-8 (human ileocecal adenocarcinoma) cells were grown in a monolayer to 85-90% confluency in RPMI-1640 medium. Freshly excysted, washed C. parvum sporozoites were mixed with a sodium percarbonate treatment and then added to HCT-8 cells at 1.25×10^6 sporozoites per monolayer. The cells were incubated with the sporozoites for 2 hours at 10% CO2, 37° C. Cells were then washed and incubated in fresh media for 22 hours. Infected, untreated cells served as a control. After incubation, infected cells were harvested and DNA was isolated. The number of C. parvum were quantified using qPCR for the Cryptosporidium oocyst wall protein (COWP) gene.

[2] = system: C. parvum oocysts; assay: Mouse Cryptosporidium challenge, infection level in intestines by qPCR; assay type: in vivo, Cryptosporidium parvum; settings: FIG. 2
Method: Sodium percarbonate (“NPC”) at 0.26 mg/head, 12.5 mg/head, or 450 mg/head was tested in a Cryptosporidium challenge in mice. Eight-day-old ICR or CD-1 mice were divided into treatment (UA) and control (water) groups (n=10/group). Mice were infected with 1×10^4 C. parvum oocysts by oral inoculation. At the time of infection, and for every 12 hours thereafter, mice were treated with 100 μl per dose of NPC or water. A total of 8 doses per mouse were administered before termination of the challenge and collection of the intestines. The experiment was repeated twice (“Challenges I and II”). Infection levels were determined by qPCR against a known standard curve of C. parvum organisms.

[3] = system: C. parvum oocysts (Iowa isolate); assay: Clinical calf cryptosporidiosis trial (oocyst shedding, body weight, feces, clinical scores); assay type: in vivo, Cryptosporidium parvum; settings: for daily number of oocysts shed compared to control group: FIG. 3; for decrease in weight over the course of the trial: FIG. 5
[4] = system: C. parvum sporozoites excysted from oocysts shed by infected calves; assay: Infectivity of Cryptosporidium oocysts shed by treated calves, excysted and tested on HCT-8 cells; assay type: cell-based, Cryptosporidium parvum; settings: FIG. 8
Method: as §1, with “HCT-8” for “Sodium percarbonate (0.26, 2.08, 3.125, 6.25, 12.5, 18.75, 25, or 450 mg/L) was tested for its ability to neutralize C. parvum sporozoites in host epithelial cells. HCT-8”
Oocysts were collected from feces of calves in the control and treatment groups of Example 3 on multiple days during the duration of the study. The oocysts were excysted and analyzed to ensure equal excystation rates between the four treatment groups. HCT-8 cells were infected, harvested, and processed as described in Example 1.

## O=C([O-])[O-].O=C([O-])[O-].OO.OO.OO.[Na+].[Na+].[Na+].[Na+] [sodium percarbonate]
[1]
  reduction in infection by C. parvum sporozoites of HCT-8 cells compared to untreated control: significantly reduced infected
[2]; mice, 0.26, 12.5, 450 mg/head
  dose dependence of percent reduction in C. parvum infection: increased as treatment dose increased
[2]; mice, 450 mg/head, 8 doses every 12 hours, oral
  percent reduction in C. parvum infection compared to control: 89.9%
[3]; calves, 500 mg NPC BID in milk replacer, p<0.05
  daily number of oocysts shed compared to control group: significantly fewer oocysts on Days 4-6 and 9-10 PI
[3]; calves, 500 mg NPC BID, Days 3-10 PI, p<0.05, FIG. 4
  reduction of mean total number of oocysts shed over the trial compared to control group: about 24%
[3]; calves, 1000 mg NPC BID in milk replacer, p<0.05
  daily number of oocysts shed compared to control group: significantly fewer oocysts on Days 6 and 10 PI
[3]; infected calves, H-NPC (1000 mg NPC BID)
  decrease in weight over the course of the trial: 3.6%
[3]; infected calves, L-NPC (500 mg NPC BID)
  decrease in weight over the course of the trial: 2.5%
[3]; infected calves, both NPC treatment groups (500 and 1000 mg BID)
  weight loss compared to the control group: tended to lose less weight
[4]; oocysts from calves treated with high-dose (1000 mg BID) sodium percarbonate
  ability of shed oocysts to infect HCT-8 cells compared with oocysts from untreated calves: reduced ability to infect HCT-8 cells
[4]; oocysts from calves treated with low-dose (500 mg BID) sodium percarbonate
  ability of shed oocysts to infect HCT-8 cells compared with oocysts from untreated calves: reduced ability to infect HCT-8 cells
